Laboratory results: patent US10383329B2, “Preservatives” (Eden Research PLC, priority 2012, dated 2019)

Assay: Citral solution / stable suspension limit
Format: physicochemical
Description: The choice of terpene may vary and mixtures of terpenes in an appropriate amount may be used. Thus, in one embodiment the terpene component includes one or more terpenes which contain oxygen. Citral, for example citral 95, is an oxygenated C10H16 terpene, C10H16O CAS No. 5392-40-5 (3,7-dimethyl-2,6-octadien-1-al). A stable suspension of citral can be formed up to about 2500 ppm. Citral can be made into a solution at up to about 500 ppm. A stable suspension of hollow glucan particles incorporating citral of 25 ppt citral can be made.

CC(C)=CCCC(C)=CC=O [Citral, 3,7-dimethyl-2,6-octadien-1-al]
Concentration up to which citral can be made into a solution (solution): up to 500 ppm | Concentration up to which a stable suspension of citral can be formed (stable suspension): up to 2500 ppm
